Data from patent US11401271B2, “Fused heterocyclic compound, pyrazole-ring-containing fused heterocyclic compound, agricultural composition containing thereof, and method of using the composition” (SOUTH CHINA AGRICULTURAL UNIVERSITY, priority 2017, dated 2022).
Read-outs that look alike come from different tables or passages of the source.

Legend:
Experiment in all cases: whole plant or invertebrate
Format in all cases: in vivo
[1] = system: Plutella xylostella; conditions: for mortality at 500 ppm: Plutella xylostella, read-out: Plutella xylostella Mortality (%) 500 ppm; for Plutella xylostella Mortality (%) / Plutella xylostella Mortality (%) 500 ppm: 500 ppm, 2nd-instar larvae, leaf immersion feeding
In short: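 Cabbage leaf discs dipped 5 s in compound at 500 ppm (0.05% Tween-80 aqueous), air-dried, fed to about 35 2nd-instar larvae at 28° C., triplicate. Dead larvae counted after 24 h; mortality (%) corrected against Tween-80 control.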

[2] = system: Spodoptera exigua; conditions: for mortality at 500 ppm: Spodoptera exigua, 24 h, read-out: Spodoptera exigua Mortality (%) 500 ppm; for Spodoptera exigua Mortality (%) / Spodoptera exigua Mortality (%) 500 ppm: 500 ppm, 2nd-instar larvae, leaf immersion feeding; for Spodoptera exigua Mortality (%) 500 ppm: 24 hours
In short: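 Cabbage leaf discs dipped 5 s in 500 ppm compound (0.05% Tween-80 aqueous), air-dried, fed to about 35 2nd-instar larvae at 28° C, three replicates. Deaths counted at 24 h; mortality corrected against Tween-80 control.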

[3] = system: Aphis craccivora; conditions: for mortality at 500 ppm: Aphis craccivora, 24 h, read-out: Aphis craccivora Mortality (%) 500 ppm; for Aphis craccivora Mortality (%) / Aphis craccivora Mortality (%) 500 ppm: 500 ppm, wingless adults; for Aphis craccivora Mortality (%): immersion 5 seconds, counted after 24 hours; for Aphis craccivora Mortality (%) 500 ppm: impregnation method, 24 hours
In short: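 Wingless adults feeding on bean sprouts were dipped with the sprouts for 5 s in 500 ppm compound in aqueous 0.05% Tween-80, air-dried, then held at 23° C. Dead aphids counted after 24 h, triplicate, with 0.05% Tween-80 as control. Mortality (%) = (control live − treated live)/control live × 100.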

[4] = system: Solenopsis invicta; conditions: water test tube poison-feeding; for mortality at 100 ppm: Solenopsis invicta; for Solenopsis invicta Mortality (%) 24 h / Solenopsis invicta Mortality (%) 72 h / Solenopsis invicta Mortality (%) 100 ppm 24 h / Solenopsis invicta Mortality (%) 100 ppm 72 h: 100 ppm
In short: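 Fire ants fed compound by water test-tube poison-feeding at 100 ppm in aqueous 0.05% Tween-80/5% honey (from 10 g/L DMSO stock), kept at 25 °C. Live and dead ants counted at 24 and 72 h; mortality (%) calculated relative to live ants in the untreated control.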

[5] = 24 h, read-out: Solenopsis invicta Mortality (%) 100 ppm 24 h, 100 ppm, 24 h
[6] = 72 h, read-out: Solenopsis invicta Mortality (%) 100 ppm 72 h, 100 ppm, 72 h

SMILES	Plutella xylostella Mortality (%) [1]	Spodoptera exigua Mortality (%) [2]	Aphis craccivora Mortality (%) [3]	Solenopsis invicta Mortality (%) 24 h ([4]; 24 h)	Solenopsis invicta Mortality (%) 72 h ([4]; 72 h)	also measured
CCNc1cc2n(n1)-c1cnccc1C(F)(CC(F)(F)F)N2 (stereo not shown) [Compound A37]	–	–	–	–	–	mortality at 500 ppm [1]: 100%; mortality at 500 ppm [2]: 100%; mortality at 500 ppm [3]: 100%; mortality at 100 ppm [4, 5]: 20%; mortality at 100 ppm [4, 6]: 100%
COC(=O)CC1Nc2c([S+]([O-])C(F)(F)F)c(C(F)(F)F)nn2-c2c(Cl)cc(C(F)(F)F)cc21 (stereo not drawn) [d-98]	100%	100%	100%	20%	99%	–
CCCCOC(=O)CC1(C(=O)OCCCC)Nc2c([S+]([O-])C(F)(F)F)c(C#N)nn2-c2c(Cl)cc(C(F)(F)F)cc21 (stereo not drawn) [d-72]	90%	85%	99%	26%	76%	–
N#CC1Nc2c([S+]([O-])C(F)(F)F)c(C(F)(F)F)nn2-c2ncc(C(F)(F)F)cc21 (stereo not shown) [a-95]	–	–	–	–	–	Plutella xylostella Mortality (%) 500 ppm [1]: 96%; Spodoptera exigua Mortality (%) 500 ppm [2]: 89%; Aphis craccivora Mortality (%) 500 ppm [3]: 100%; Solenopsis invicta Mortality (%) 100 ppm 24 h ([4]; 24 h): 21%; Solenopsis invicta Mortality (%) 100 ppm 72 h ([4]; 72 h): 92%
COC(=O)C1Nc2c([S+]([O-])C(F)(F)F)c(C(F)(F)F)nn2-c2ncc(C(F)(F)F)cc21 (stereo not shown) [a-87]	–	–	–	–	–	Plutella xylostella Mortality (%) 500 ppm [1]: 96%; Spodoptera exigua Mortality (%) 500 ppm [2]: 100%; Aphis craccivora Mortality (%) 500 ppm [3]: 100%; Solenopsis invicta Mortality (%) 100 ppm 24 h ([4]; 24 h): 20%; Solenopsis invicta Mortality (%) 100 ppm 72 h ([4]; 72 h): 97%
COC(=O)CC1(C(=O)OC)Nc2c(OC(F)(F)F)c(C#N)nn2-c2c(Cl)cc(C(F)(F)F)cc21 (stereo not drawn) [d-3]	100%	98%	100%	21%	87%	–
N#CCC1Nc2c([S+]([O-])C(F)(F)F)c(C#N)nn2-c2cncc(Cl)c21 (stereo not shown) [b-73]	89%	85%	100%	20%	90%	–
CNC(=O)C1Nc2c([S+]([O-])C(F)(F)F)c(C(F)(F)F)nn2-c2c(Cl)cc(C(F)(F)F)cc21 (stereo not drawn) [d-109]	96%	85%	99%	28%	85%	–
CC(=O)C1(CC(F)(F)F)Nc2c([S+]([O-])C(F)(F)F)c(C#N)nn2-c2ncc(C(F)(F)F)cc21 (stereo not shown) [a-36]	–	–	–	–	–	Plutella xylostella Mortality (%) 500 ppm [1]: 100%; Spodoptera exigua Mortality (%) 500 ppm [2]: 96%; Aphis craccivora Mortality (%) 500 ppm [3]: 100%; Solenopsis invicta Mortality (%) 100 ppm 24 h ([4]; 24 h): 14%; Solenopsis invicta Mortality (%) 100 ppm 72 h ([4]; 72 h): 91%
COC(=O)CC1(C(=O)OC)Nc2c(C#N)c(C(F)(F)F)nn2-c2cc(C(F)(F)F)cc(Cl)c21 (stereo not shown) [c-4]	97%	100%	100%	29%	93%	–
C=CC1(CCl)Nc2c(Br)c(C#N)nn2-c2c(Cl)cc(C(F)(F)F)cc21 (stereo not shown) [Compound C5]	–	–	–	–	–	mortality at 500 ppm [1]: 100%; mortality at 500 ppm [2]: 100%; mortality at 500 ppm [3]: 100%; mortality at 100 ppm [4, 5]: 34%; mortality at 100 ppm [4, 6]: 100%
C=CC1(CC(F)(F)F)Nc2c(Br)c(C#N)nn2-c2c(Cl)cc(C(F)(F)F)cc21 (stereo not shown) [Compound C6]	–	–	–	–	–	mortality at 500 ppm [1]: 100%; mortality at 500 ppm [2]: 100%; mortality at 500 ppm [3]: 100%; mortality at 100 ppm [4, 5]: 44%; mortality at 100 ppm [4, 6]: 100%
N#Cc1nn2c(c1[S+]([O-])C(F)(F)F)NC(CC(F)(F)F)(C(F)(F)F)c1cc(C(F)(F)F)cc(Cl)c1-2 (stereo not drawn) [d-69]	90%	86%	100%	44%	100%	–
CCOC(=O)CC1(C(=O)OCC)Nc2c([S+]([O-])C(F)(F)F)c(C#N)nn2-c2c(C(F)(F)F)ccc(Cl)c21 (stereo not shown) [e-5]	100%	100%	100%	34%	100%	–
N#CCC1(C(=O)C(F)(F)F)Nc2c([S+]([O-])C(F)(F)F)c(C#N)nn2-c2cncc(Cl)c21 (stereo not shown) [b-30]	90%	85%	100%	25%	94%	–
CNC(=O)C1Nc2c([S+]([O-])C(F)(F)F)c(C(F)(F)F)nn2-c2cncc(Cl)c21 (stereo not shown) [b-99]	91%	85%	100%	24%	90%	–
N#Cc1nn2c(c1[S+]([O-])C(F)(F)F)NC(CC(=O)C(F)(F)F)(C(=O)C(F)(F)F)c1cc(C(F)(F)F)cc(Cl)c1-2 (stereo not drawn) [d-50]	100%	90%	100%	26%	93%	–
N#Cc1nn2c(c1OC(F)(F)F)NC(C(=O)C(F)(F)F)c1cc(C(F)(F)F)cc(Cl)c1-2 (stereo not drawn) [d-127]	96%	100%	100%	20%	97%	–
COC(=O)CC1(C(=O)OC)Nc2c([S+]([O-])C(F)(F)F)c(C#N)nn2-c2ccc(C(F)(F)F)c(Cl)c21 (stereo not shown) [e-7]	100%	100%	100%	29%	99%	–
CC(=O)C1(CC(F)(F)F)Nc2c([S+]([O-])C(F)(F)F)c(C#N)nn2-c2c(Cl)cc(C(F)(F)F)cc21 (stereo not drawn) [d-48]	96%	90%	100%	26%	100%	–
CC=CC1Nc2c([S+]([O-])C(F)(F)F)c(C(F)(F)F)nn2-c2ncc(C(F)(F)F)cc21 (stereo not shown) [a-109]	–	–	–	–	–	Plutella xylostella Mortality (%) 500 ppm [1]: 95%; Spodoptera exigua Mortality (%) 500 ppm [2]: 89%; Aphis craccivora Mortality (%) 500 ppm [3]: 100%; Solenopsis invicta Mortality (%) 100 ppm 24 h ([4]; 24 h): 20%; Solenopsis invicta Mortality (%) 100 ppm 72 h ([4]; 72 h): 90%
CSc1nn2c(c1C(=O)N(C)C)NC(F)(C(F)(F)F)c1ccccc1-2 (stereo not shown) [Compound A29]	–	–	–	–	–	mortality at 500 ppm [1]: 100%; mortality at 500 ppm [2]: 100%; mortality at 500 ppm [3]: 100%; mortality at 100 ppm [4, 5]: 26%; mortality at 100 ppm [4, 6]: 95%
COC(=O)C(C)C1Nc2c(OC(F)(F)F)c(C#N)nn2-c2c(Cl)cc(C(F)(F)F)cc21 (stereo not drawn) [d-122]	91%	84%	90%	24%	95%	–
N#CCC1(Cl)Nc2c([S+]([O-])C(F)(F)F)c(C#N)nn2-c2c(Cl)cc(C(F)(F)F)cc21 (stereo not drawn) [d-60]	96%	90%	90%	24%	90%	–
CC(=O)c1nn2c(c1[S+](C)[O-])NC(CO)(CC#N)c1cc(C(F)(F)F)cc(Cl)c1-2 (stereo not shown) [Compound C27]	–	–	–	–	–	mortality at 500 ppm [1]: 76%; mortality at 500 ppm [2]: 86%; mortality at 500 ppm [3]: 100%; mortality at 100 ppm [4, 5]: 27%; mortality at 100 ppm [4, 6]: 86%
CSc1nn2c(c1C#N)N(S(C)(=O)=O)C(F)(C(F)(F)F)c1ccccc1-2 (stereo not shown) [Compound A33]	–	–	–	–	–	mortality at 500 ppm [1]: 100%; mortality at 500 ppm [2]: 100%; mortality at 500 ppm [3]: 100%; mortality at 100 ppm [4, 5]: 24%; mortality at 100 ppm [4, 6]: 100%
CC=CC1Nc2c([S+]([O-])C(F)(F)F)c(C(F)(F)F)nn2-c2c(Cl)cc(C(F)(F)F)cc21 (stereo not drawn) [d-119]	89%	90%	92%	26%	83%	–
COC(=O)CC1(C(=O)OC)Nc2c([S+]([O-])C(F)(F)F)c(C#N)nn2-c2ncc(C(F)(F)F)cc21 (stereo not shown) [a-1]	–	–	–	–	–	Plutella xylostella Mortality (%) 500 ppm [1]: 100%; Spodoptera exigua Mortality (%) 500 ppm [2]: 100%; Aphis craccivora Mortality (%) 500 ppm [3]: 100%; Solenopsis invicta Mortality (%) 100 ppm 24 h ([4]; 24 h): 20%; Solenopsis invicta Mortality (%) 100 ppm 72 h ([4]; 72 h): 100%
COC(=O)CC1Nc2c([S+]([O-])C(F)(F)F)c(C#N)nn2-c2ncc(C(F)(F)F)cc21 (stereo not shown) [a-65]	–	–	–	–	–	Plutella xylostella Mortality (%) 500 ppm [1]: 100%; Spodoptera exigua Mortality (%) 500 ppm [2]: 100%; Aphis craccivora Mortality (%) 500 ppm [3]: 100%; Solenopsis invicta Mortality (%) 100 ppm 24 h ([4]; 24 h): 26%; Solenopsis invicta Mortality (%) 100 ppm 72 h ([4]; 72 h): 100%
